Results published in patent publication US9546157B2, “Asymmetric piperidinyl-substituted ureas as medicines” (Helsinn Healthcare SA, priority 2014, dated 2017).

Legend:
[1] = target: T1, GHSR1a (Homo sapiens, UniProt Q92847); experiment: Calcium FLIPR assay, GHSR-1a antagonism (reduction of ghrelin response); format: cell-based; conditions: HEK293/GHSR1a cells, ghrelin 10 nM
T1 construct: expressed in transfected cells; host or cells: HEK293
How it was run: (§1)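 Relative fluorescence read-out (FLIPR) of intracellular calcium in HEK293/GHSR1a cells. For antagonist mode, compound and 10 nM ghrelin were co-added at t=20 sec, and inhibition of the ghrelin response over 2 minutes gave IC50. Agonist mode: compound alone at t=20 sec, response tracked 2 minutes; EC50 from dose-response.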

[2] = Metabolic Stability (H = Human); format: in vitro ADME
[3] = Metabolic Stability (M = Mouse); format: in vitro ADME
[4] = target: T1, GHSR1a; experiment: Calcium FLIPR assay, GHSR-1a agonism; format: cell-based; parameters: Emax: unit not given here; conditions: HEK293/GHSR1a cells
How it was run: as §1

[5] = tested on: C57BL/6J mice; experiment: Food intake test in mouse (GHSR1a antagonists); format: in vivo; conditions: for inhibition in vivo at 10 mg/kg / inhibition in vivo at 30 mg/kg: Mus musculus
Procedure: Male C57BL/6J mice, 18-22 g body weight, were fasted overnight (16 h before compound administration) and placed in a regular light dark cycle (6:00-18:00 light/18:00-6:00 dark). After 1 wk acclimation, animals were sorted into two groups (n=6 each, 2 per cage) based on body weight. Animals in group one were be treated with vehicle and animals in group 2 were treated with the test agent (n=6 for each group). The cumulative food intake was evaluated at 1, 2, 4, 8 and 24 hrs after drug or vehicle treatment. Food intake was measured by subtracting uneaten food from the initial premeasured food.

[6] = PO 10 mg/kg + ANA (ANAM) 30 mg/kg mice

T1 sequence (Q92847 whole entry): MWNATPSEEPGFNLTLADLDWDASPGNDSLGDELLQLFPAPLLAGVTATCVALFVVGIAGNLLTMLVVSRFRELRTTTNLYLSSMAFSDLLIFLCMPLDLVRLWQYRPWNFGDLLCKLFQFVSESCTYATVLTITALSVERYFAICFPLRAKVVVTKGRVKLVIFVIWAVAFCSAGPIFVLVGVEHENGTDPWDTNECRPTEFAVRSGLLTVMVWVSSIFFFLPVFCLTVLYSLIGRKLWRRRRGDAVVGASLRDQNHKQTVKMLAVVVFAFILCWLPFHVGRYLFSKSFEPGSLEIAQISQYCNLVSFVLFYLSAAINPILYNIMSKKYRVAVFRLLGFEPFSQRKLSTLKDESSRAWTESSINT

Compound | IC50 [1] | Metabolic Stability H [2] | Metabolic Stability M [3] | EC50 [4] | inhibition in vivo at 10 mg/kg ([5]; ip, 1 h, i.p. 10 mg/kg) | Mouse Food Intake, result in words ([5]; PO, dose not given) | further results
Cc1cncc(-c2ccc(C(C)NC(=O)N(C)C3CCN(C)CC3)c(Cl)c2Cl)c1 (stereo not drawn) [Compound H0639, 3-(1-(2,3-dichloro-4-(5-methylpyridin-3-yl)phenyl)ethyl)-1-methyl-1-(1-methylpiperidin-4-yl)urea] | 48 nM | Medium H Medium M | Medium H Medium M | > 30 µM |  |  | Mouse Food Intake, result in words ([5]; i.p. 10 mg/kg): NSE (10 mg/kg)
COc1ncc(-c2ccc(C(C)NC(=O)N(C)C3CCN(C)CC3)c(Cl)c2Cl)cn1 (stereo not drawn) [Compound H0649, 3-(1-(2,3-dichloro-4-(2-methoxypyrimidin-5-yl)phenyl)ethyl)-1-methyl-1-(1-methylpiperidin-4-yl)urea] | 18 nM | High H High M | High H High M | 0.064 µM | 48% |  | Emax [4]: 1400; inhibition in vivo at 10 mg/kg ([5]; ip, 2 h, i.p. 10 mg/kg): 48%
CC(=O)c1ccc(-c2ccc(C(C)NC(=O)N(C)C3CCN(C)CC3)c(Cl)c2Cl)s1 (stereo not drawn) [Compound H0655, 3-(1-(4-(5-acetylthiophen-2-yl)-2,3-dichlorophenyl)ethyl)-1-methyl-1-(1-methylpiperidin-4-yl)urea] | 12 nM | Medium H Medium M | Medium H Medium M | > 30 µM | 70% |  | 
CC(NC(=O)N(O)C1CCN(C)CC1)c1ccc(-c2cncc(C#N)c2)c(Cl)c1Cl (stereo not drawn) [Compound H0667, 3-(1-(2,3-dichloro-4-(5-cyanopyridin-3-yl)phenyl)ethyl)-1-hydroxy-1-(1-methylpiperidin-4-yl)urea] | < 1 nM | High H High M | High H High M | 0.003 µM | 76% |  | Emax [4]: 4887
CN1CCC(N(C)C(=O)NC(c2ccc(-c3cncnc3)c(Cl)c2Cl)C(F)(F)F)CC1 (stereo not drawn) [Compound H0686, 3-(1-(2,3-dichloro-4-(pyrimidin-5-yl)phenyl)-2,2,2-trifluoroethyl)-1-methyl-1-(1-methylpiperidin-4-yl)urea] | 14 nM | Medium | High | > 30 µM |  | NSE | inhibition in vivo at 10 mg/kg ([5]; ip, 2 h, i.p. 10 mg/kg): 61%; inhibition in vivo at 10 mg/kg ([5]; ip, 4 h, i.p. 10 mg/kg): 61%
CC(NC(=O)N(C)C1CCN(C)CC1)c1ccc(-c2ccc(C(N)=O)s2)c(Cl)c1Cl (stereo not drawn) [Compound H0691, 5-(2,3-dichloro-4-(1-(3-methyl-3-(1-methylpiperidin-4-yl)ureido)ethyl)phenyl)thiophene-2-carboxamide] | 5 nM | High H High M | High H High M | > 30 µM |  | not active | inhibition in vivo at 10 mg/kg ([5]; ip, 2 h, i.p. 10 mg/kg): 62%
CC(NC(=O)N(C)C1CCN(C)CC1)c1ccc(-c2cnccn2)c(Cl)c1Cl (stereo not drawn) [Compound H0700, 3-(1-(2,3-dichloro-4-(pyrazin-2-yl)phenyl)ethyl)-1-methyl-1-(1-methylpiperidin-4-yl)urea] | 7 nM | High H High M | High H High M | > 30 µM |  |  | inhibition in vivo at 10 mg/kg ([5]; 1 h, Fed mice, 10 mg/kg): 71%; inhibition in vivo at 10 mg/kg ([5]; ip, 2 h, i.p. 10 mg/kg): 41%

More lines, main results first:

IC50 [1] | Metabolic Stability H [2] | Metabolic Stability M [3] | EC50 [4] | Compound | inhibition in vivo at 10 mg/kg ([5]; ip, 1 h, i.p. 10 mg/kg) | Mouse Food Intake, result in words ([5]; PO, dose not given) | further results
19 nM | High | Medium | > 30 µM | CC(NC(=O)N(C)C1CCN(C)CC1)c1ccc(-c2cncc(N)c2)c(Cl)c1Cl (stereo not drawn) [Compound H0704, 3-(1-(4-(5-aminopyridin-3-yl)-2,3-dichlorophenyl)ethyl)-1-methyl-1-(1-methylpiperidin-4-yl)urea] |  |  | inhibition in vivo at 10 mg/kg ([5]; ip, 2 h, i.p. 10 mg/kg): 32%
13 nM | High H High M | High H High M | > 30 µM | CN1CCC(N(C)C(=O)NC(CC2CC2)c2ccc(-c3cnccn3)c(Cl)c2Cl)CC1 (stereo not drawn) [Compound H0722, 3-(2-cyclopropyl-1-(2,3-dichloro-4-(pyrazin-2-yl)phenyl)ethyl)-1-methyl-1-(1-methylpiperidin-4-yl)urea] | 90% |  | Mouse Food Intake, result in words ([5]; PO 30 mg/kg): NSE
13 nM | High H High M | High H High M | > 30 µM | CC(NC(=O)N(C)C1CCN(C)CC1)c1ccc(C#Cc2cccs2)c(Cl)c1Cl (stereo not drawn) [Compound H0737, 3-(1-(2,3-dichloro-4-(thiophen-2-ylethynyl)phenyl)ethyl)-1-methyl-1-(1-methylpiperidin-4-yl)urea] | 75% | NSE | 
11 nM | High H High M | High H High M | > 30 µM | CC(NC(=O)N(C)C1CCN(C)CC1)c1ccc(C#Cc2nccs2)c(Cl)c1Cl (stereo not drawn) [Compound H0754, 3-(1-(2,3-dichloro-4-(thiazol-2-ylethynyl)phenyl)ethyl)-1-methyl-1-(1-methylpiperidin-4-yl)urea] | 74% | no effect | Mouse Food Intake, result in words ([5]; PO + ANA (ANAM), mice, dose not given): no effect
7 nM | High H High M | High H High M | > 30 µM | CC(NC(=O)N(C)C1CCN(C)CC1)c1ccc(C#Cc2ccsc2)c(Cl)c1Cl (stereo not drawn) [Compound H0759, 3-(1-(2,3-dichloro-4-(thiophen-3-ylethynyl)phenyl)ethyl)-1-methyl-1-(1-methylpiperidin-4-yl)urea] | 85% | no effect | 
0.2 nM | High H High M | High H High M | 0.003 µM | CN1CCC(N(O)C(=O)NC(CC2CC2)c2ccc(-c3cnccn3)c(Cl)c2Cl)CC1 (stereo not drawn) [Compound H0761, 3-(2-cyclopropyl-1-(2,3-dichloro-4-(pyrazin-2-yl)phenyl)ethyl)-1-hydroxy-1-(1-methylpiperidin-4-yl)urea] | 63% | NSE | Emax [4]: 2907; Mouse Food Intake, result in words ([5]; PO, fasted mice, dose not given): No activity; FI increase ([5]; PO, fed mice): 215%; Mouse Food Intake, result in words ([5]; fed mice, route not clear): No activity
10 nM | High H High M | High H High M | 0.014 µM | CC(NC(=O)N(C)C1CCN(C)CC1)c1ccc(C#CC2CC2)c(Cl)c1Cl (stereo not drawn) [Compound H0764, 3-(1-(2,3-dichloro-4-(cyclopropylethynyl)phenyl)ethyl)-1-methyl-1-(1-methylpiperidin-4-yl)urea] | 91% |  | Emax [4]: 1352; inhibition in vivo at 30 mg/kg ([5]; po, 2 h, PO 30 mg/kg): 70%; inhibition in vivo at 30 mg/kg ([5]; sc, 1 h, SC 30 mg/kg): 53%
37 nM | High H High M | High H High M | > 30 µM | CC(NC(=O)N(C)C1CCN(C)CC1)c1ccc(/C=C/c2cccs2)c(Cl)c1Cl (stereo not drawn) [Compound H0767, (E)-3-(1-(2,3-dichloro-4-(2-(thiophen-2-yl)vinyl)phenyl)ethyl)-1-methyl-1-(1-methylpiperidin-4-yl)urea] | 88% | NSE | 
3 nM | High | Medium | > 30 µM | CC(NC(=O)N(C)[C@@H]1CCN(C)CC1(C)C)c1ccc(-c2cnccn2)c(Cl)c1Cl (stereo partly drawn) [Compound H0824, 2-(1-(2,3-dichloro-4-(pyrazin-2-yl)phenyl)ethyl)-1-methyl-1-((R)-1,3,3-trimethylpiperidin-4-yl)urea] |  |  | Mouse Food Intake, result in words ([5]; PO 30 mg/kg + ANA mice): PO 30 mg/kg + ANA mice: NSE
3 nM | High H High M | High H High M | > 30 µM | CCC(NC(=O)N(C)C1CCN(C)CC1)c1ccc(-c2cnccn2)c(Cl)c1Cl (stereo not drawn) [Compound H0829, 3-(1-(2,3-dichloro-4-(pyrazin-2-yl)phenyl)propyl)-1-methyl-1-(1-methylpiperidin-4-yl)urea] |  |  | Mouse Food Intake, result in words [5, 6]: PO 10 mg/kg + ANA 30 mg/kg mice: NSE
432 nM | Medium | High | > 30 µM | C[C@@H](NC(=O)N(C)C1CCN(C)CC1)c1ccc(-c2cncc(F)n2)c(Cl)c1Cl [Compound H0848, (R)-3-(1-(2,3-dichloro-4-(6-fluoropyrazin-2-yl)phenyl)ethyl)-1-methyl-1-(1-methylpiperidin-4-yl)urea] |  |  | Mouse Food Intake, result in words [5, 6]: PO 10 mg/kg + ANA 30 mg/kg mice: NSE
